Results published in PubChem BioAssay (NCI).
Where “and” joins values, the source holds several entries; their conditions need not be identical. Identical values can stand only once.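 The compound was tested at five concentrations on cells cultured in 96-well plates, with a 48-hour exposure period. Here, GI50 denotes the concentration required for 50% inhibition of growth. TGI denotes the concentration required for complete inhibition of growth.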

Columns and labels:
Assay in all cases: NCI tumour cell line growth inhibition, 48 h
NCI-H226 lung = system: NCI-H226 lung
UACC-62 melanoma = system: UACC-62 melanoma
A498 renal = system: A498 renal
786-0 renal = system: 786-0 renal
MOLT-4 leukemia = system: MOLT-4 leukemia
EKVX NSCLC = system: EKVX NSCLC
RPMI-8226 leukemia = system: RPMI-8226 leukemia
IGROV1 ovarian = system: IGROV1 ovarian
HCT-116 colon = system: HCT-116 colon
SF-295 CNS = system: SF-295 CNS

SMILES	TGI (NCI-H226 lung)	TGI (UACC-62 melanoma)	TGI (A498 renal)	TGI (786-0 renal)	TGI (MOLT-4 leukemia)	TGI (EKVX NSCLC)	TGI (RPMI-8226 leukemia)	TGI (IGROV1 ovarian)	TGI (HCT-116 colon)	TGI (SF-295 CNS)	GI50 (NCI-H226 lung)	GI50 (UACC-62 melanoma)	GI50 (A498 renal)	GI50 (786-0 renal)	GI50 (MOLT-4 leukemia)	GI50 (EKVX NSCLC)	GI50 (RPMI-8226 leukemia)	GI50 (IGROV1 ovarian)	GI50 (HCT-116 colon)	GI50 (SF-295 CNS)
COc1cccc(/C=C/c2cc(OC)c(OC)c(OC)c2)c1	> 100 µM	> 100 µM	> 100 µM	> 100 µM	> 100 µM	> 100 µM	> 100 µM	> 100 µM	> 100 µM	–	–	–	–	–	–	–	–	–	–	–
CC(=O)Nc1ccc(C(=O)NN2C(=O)CSC2c2ccc([N+](=O)[O-])cc2)cc1 (stereo not given)	> 100 µM	> 100 µM	> 100 µM	> 100 µM	> 100 µM	> 100 µM	> 100 µM	> 100 µM	> 100 µM	> 100 µM	–	–	–	–	–	–	–	–	–	–
CC(=O)c1cccc(NC(=O)C(=O)NNc2n[nH]c(=S)n2N)c1	20.1 µM	3.72 µM	37.7 µM	25.5 µM	18.3 µM	29 µM	58.8 µM	25.8 µM	12.8 µM	16.9 µM	–	–	–	–	–	–	–	–	–	–
CCN(CC)CC1CCCCCCCCCCC1=O (stereo not given)	> 100 µM	> 100 µM	> 100 µM	> 100 µM	> 100 µM	> 100 µM	> 100 µM	> 100 µM	> 100 µM	> 100 µM	–	–	–	–	–	–	–	–	–	–
[N-]=[N+]=NC12CC3C4CC5CC3C(C1)C(C5)C4C2	> 100 µM	> 100 µM	> 100 µM	> 100 µM	> 100 µM	> 100 µM	> 100 µM	> 100 µM	> 100 µM	> 100 µM	–	–	–	–	–	–	–	–	–	–
CNC(=O)N(C)N=NCCCl	> 100 µM	> 100 µM	> 100 µM	> 100 µM	> 100 µM	> 100 µM	> 100 µM	> 100 µM	> 100 µM	> 100 µM	–	–	–	–	–	–	–	–	–	–
O=C(CNc1ccc(Cl)cc1)Nc1ccc(-c2nc3ccccc3s2)cc1	11 µM	8.3 µM	25 µM	4.03 µM	> 26.6 µM	24.5 µM	16 µM	12.9 µM	3.76 µM	28.8 µM	2.94 µM	2.63 µM	12.5 µM	1.9 µM	0.811 µM	8.02 µM	2.82 µM	5.79 µM	1.74 µM	14.1 µM
CCN(CC)CCC(CNc1ccnc2cc(Cl)ccc12)c1ccc(OC)cc1 (stereo not given)	17.3 µM and 28.4 µM	5.02 µM and 4.01 µM	13.4 µM and 14.1 µM	25.8 µM and 11.8 µM	41.4 µM and 50.9 µM	57.7 µM and > 100 µM	35.5 µM and 8.15 µM	39.8 µM and 24.2 µM	24.7 µM and 14.4 µM	10.2 µM and 7.8 µM	4.14 µM and 4.92 µM	2.31 µM and 1.86 µM	3.82 µM and 3.49 µM	11.9 µM and 3.46 µM	6.77 µM and 4.68 µM	6.44 µM and 12.7 µM	7.14 µM and 2.12 µM	10.7 µM and 4.28 µM	5.15 µM and 1.87 µM	2.87 µM and 1.95 µM
COc1cc(N(CCC#N)CCC#N)ccc1/C(N=Nc1ccc([N+](=O)[O-])cc1)=N/NC(=O)c1cc(Br)ccc1O	64.3 µg/mL	> 150 µg/mL	> 150 µg/mL	> 150 µg/mL	128 µg/mL	> 150 µg/mL	> 150 µg/mL	121 µg/mL	91.9 µg/mL	69.6 µg/mL	5.47 µg/mL	40.9 µg/mL	86.6 µg/mL	46.4 µg/mL	42.6 µg/mL	42.8 µg/mL	38.2 µg/mL	26.6 µg/mL	29.9 µg/mL	29.9 µg/mL
CCCCC(C(=O)C(=O)NC1C2CC3CC(C2)CC1C3)C(=O)C(C)C (stereo not given)	> 100 µM	> 100 µM	> 100 µM	> 100 µM	> 100 µM	> 100 µM	> 100 µM	> 100 µM	> 100 µM	> 100 µM	–	–	–	–	–	–	–	–	–	–
O=C1/C(=C/c2ccc(Br)cc2)COc2ccc(O)c(O)c21	5.52 µM	2.4 µM	7.75 µM	2.57 µM	> 100 µM	3.14 µM	1.02 µM	2.16 µM	2.4 µM	6.83 µM	2.01 µM	1.07 µM	2.97 µM	0.678 µM	0.431 µM	1.45 µM	0.221 µM	0.631 µM	0.892 µM	2.57 µM
CCOC(=O)CCCn1c(SC)nc2[nH]cc(-c3ccccc3)c2c1=O	45.1 µM	25.1 µM	63.3 µM	44.8 µM	10.1 µM	85.8 µM	36.3 µM	47 µM	34 µM	34.2 µM	14.1 µM	11.2 µM	16.5 µM	6.81 µM	0.489 µM	24.8 µM	14.6 µM	16.5 µM	14.1 µM	11.6 µM
O=C(OC(CNc1cc(=O)n(Cc2ccccc2)c(=O)n1Cc1ccccc1)CN1CCCC1)c1ccccc1 (stereo not given)	> 100 µM	> 100 µM	> 100 µM	> 100 µM	> 100 µM	> 100 µM	> 100 µM	> 100 µM	> 100 µM	> 100 µM	81.8 µM	89.4 µM	> 100 µM	> 100 µM	> 100 µM	> 100 µM	29.3 µM	> 100 µM	56.8 µM	> 100 µM
Cc1ccc(NC(=O)C(=O)C(C(=O)c2ccc3ccccc3c2)C2OC(=O)c3ccccc32)cc1C (stereo not given)	11 µM	30.7 µM	31 µM	23.8 µM	25.9 µM	> 100 µM	37.5 µM	64 µM	25.5 µM	–	–	–	–	–	–	–	–	–	–	–
O=C1c2cccc(NCCCNCCO)c2C(=O)c2cccc(NCCCNCCO)c21	5.11 µM and 2.99 µM	3.25 µM and 4.33 µM	4.66 µM and 7.58 µM	10.1 µM and 5.84 µM	13.1 µM and 8.29 µM	6.24 µM and 9.38 µM	5.58 µM and 6.85 µM	8.22 µM and 9.3 µM	4.9 µM	18.6 µM and 7.37 µM	1.93 µM and 0.729 µM	–	–	–	–	–	–	–	–	6.32 µM and 2.35 µM
CCn1c(-c2nonc2N)nc2c(C#CC(C)(C)O)nc(OC[C@H](N)c3ccccc3)cc21	15.8 µM	8.08 µM	7.63 µM	5.43 µM	14.7 µM	18.1 µM	14 µM	7.23 µM	6.99 µM	7.22 µM	11.9 µM	4.24 µM	0.157 µM	1.91 µM	3.09 µM	10.8 µM	6.04 µM	2.63 µM	3.55 µM	2.95 µM
